Experimental data published in the kinase profiling compilation of Christmann-Franck et al. (2016).
pKi: −log10 of the molar value. Several values for one entry are separate records, joined by “and”; a condition that tells them apart may be missing. Equal values may be shown once. Each block holds one compound with its values, some of them ahead of it.

Columns and labels:
Assay in all cases: Caliper, Mobility shift assay off-chip
[1] = target: SGK3 (human) (UniProt Q96BR1)
[2] = target: PRKAA2 (human) (UniProt P54646)
[3] = target: PRKCE (human) (UniProt Q02156)
[4] = target: CSNK1A1 (human) (UniProt P48729)
[5] = target: WNK2 (human) (UniProt Q9Y3S1)
[6] = target: HCK (human) (UniProt P08631)
[7] = target: FGFR3 (human) (UniProt P22607)
[8] = target: CSNK1G1 (human) (UniProt Q9HCP0)
[9] = target: TNIK (human) (UniProt Q9UKE5)
Chain of TNIK (human) (Q9UKE5 whole entry, looked up): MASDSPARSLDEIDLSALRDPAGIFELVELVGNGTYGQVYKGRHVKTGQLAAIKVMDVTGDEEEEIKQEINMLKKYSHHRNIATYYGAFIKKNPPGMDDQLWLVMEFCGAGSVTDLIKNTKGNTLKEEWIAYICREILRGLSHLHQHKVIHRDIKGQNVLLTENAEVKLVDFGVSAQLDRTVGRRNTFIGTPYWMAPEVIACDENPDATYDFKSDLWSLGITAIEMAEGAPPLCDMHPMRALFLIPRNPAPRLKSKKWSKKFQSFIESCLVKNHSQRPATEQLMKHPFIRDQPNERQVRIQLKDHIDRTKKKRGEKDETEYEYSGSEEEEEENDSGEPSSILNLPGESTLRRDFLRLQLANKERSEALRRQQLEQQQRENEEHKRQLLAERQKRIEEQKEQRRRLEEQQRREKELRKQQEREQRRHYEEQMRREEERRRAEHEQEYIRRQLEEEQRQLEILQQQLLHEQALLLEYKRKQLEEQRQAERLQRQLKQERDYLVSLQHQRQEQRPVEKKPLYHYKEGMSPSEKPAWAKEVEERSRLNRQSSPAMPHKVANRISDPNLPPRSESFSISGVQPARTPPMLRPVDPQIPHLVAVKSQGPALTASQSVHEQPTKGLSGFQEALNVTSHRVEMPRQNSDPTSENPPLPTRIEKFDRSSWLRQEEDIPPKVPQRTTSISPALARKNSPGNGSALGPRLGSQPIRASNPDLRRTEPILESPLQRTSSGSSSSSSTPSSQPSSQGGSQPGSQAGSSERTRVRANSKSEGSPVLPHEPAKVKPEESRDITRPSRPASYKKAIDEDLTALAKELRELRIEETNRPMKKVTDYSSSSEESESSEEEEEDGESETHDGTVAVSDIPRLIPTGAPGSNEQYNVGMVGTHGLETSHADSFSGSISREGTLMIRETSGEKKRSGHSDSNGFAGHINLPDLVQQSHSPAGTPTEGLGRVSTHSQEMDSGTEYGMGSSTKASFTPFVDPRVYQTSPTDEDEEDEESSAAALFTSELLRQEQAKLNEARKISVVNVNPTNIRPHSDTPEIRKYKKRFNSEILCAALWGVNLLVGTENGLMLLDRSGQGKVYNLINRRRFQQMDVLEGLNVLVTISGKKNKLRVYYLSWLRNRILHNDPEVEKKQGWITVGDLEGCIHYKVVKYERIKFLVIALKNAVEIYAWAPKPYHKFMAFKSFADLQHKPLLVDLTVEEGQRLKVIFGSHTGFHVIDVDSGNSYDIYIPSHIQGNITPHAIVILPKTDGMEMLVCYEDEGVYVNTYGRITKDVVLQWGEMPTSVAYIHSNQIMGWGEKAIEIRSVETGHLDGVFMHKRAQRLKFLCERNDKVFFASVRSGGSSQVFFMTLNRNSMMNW

[10] = target: LTK (human) (UniProt P29376)
[11] = target: PIK3CA PIK3R1 (human) (UniProt P27986+P42336)
[12] = target: CSNK1G2 (human) (UniProt P78368)
Chain of CSNK1G2 (human) (P78368 whole entry, looked up): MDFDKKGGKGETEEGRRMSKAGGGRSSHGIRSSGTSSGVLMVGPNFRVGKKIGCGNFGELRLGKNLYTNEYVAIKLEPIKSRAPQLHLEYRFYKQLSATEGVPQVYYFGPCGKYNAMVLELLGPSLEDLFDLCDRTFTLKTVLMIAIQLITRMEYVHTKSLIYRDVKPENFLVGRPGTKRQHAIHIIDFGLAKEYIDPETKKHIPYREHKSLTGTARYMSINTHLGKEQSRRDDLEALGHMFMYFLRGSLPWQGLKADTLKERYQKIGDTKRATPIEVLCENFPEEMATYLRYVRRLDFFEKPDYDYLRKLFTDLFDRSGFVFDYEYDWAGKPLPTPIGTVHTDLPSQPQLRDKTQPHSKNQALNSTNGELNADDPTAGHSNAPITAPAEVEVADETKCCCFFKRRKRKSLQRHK

[13] = target: CSNK1D (human) (UniProt P48730)
Chain of CSNK1D (human) (P48730 whole entry, looked up): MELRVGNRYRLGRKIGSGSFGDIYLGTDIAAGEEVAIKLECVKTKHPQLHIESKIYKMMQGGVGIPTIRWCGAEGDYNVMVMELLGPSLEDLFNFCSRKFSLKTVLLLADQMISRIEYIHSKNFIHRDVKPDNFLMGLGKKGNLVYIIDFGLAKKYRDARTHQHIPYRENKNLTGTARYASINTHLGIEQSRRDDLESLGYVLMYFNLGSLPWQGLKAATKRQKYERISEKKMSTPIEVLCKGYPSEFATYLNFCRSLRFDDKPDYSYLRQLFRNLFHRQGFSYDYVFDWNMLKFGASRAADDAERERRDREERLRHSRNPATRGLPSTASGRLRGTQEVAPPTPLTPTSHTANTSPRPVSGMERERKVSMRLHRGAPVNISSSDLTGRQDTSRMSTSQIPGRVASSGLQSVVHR

[14] = target: SRMS (human) (UniProt Q9H3Y6)
[15] = target: MAPK7 (human) (UniProt Q13164)
Chain of MAPK7 (human) (Q13164 whole entry, looked up): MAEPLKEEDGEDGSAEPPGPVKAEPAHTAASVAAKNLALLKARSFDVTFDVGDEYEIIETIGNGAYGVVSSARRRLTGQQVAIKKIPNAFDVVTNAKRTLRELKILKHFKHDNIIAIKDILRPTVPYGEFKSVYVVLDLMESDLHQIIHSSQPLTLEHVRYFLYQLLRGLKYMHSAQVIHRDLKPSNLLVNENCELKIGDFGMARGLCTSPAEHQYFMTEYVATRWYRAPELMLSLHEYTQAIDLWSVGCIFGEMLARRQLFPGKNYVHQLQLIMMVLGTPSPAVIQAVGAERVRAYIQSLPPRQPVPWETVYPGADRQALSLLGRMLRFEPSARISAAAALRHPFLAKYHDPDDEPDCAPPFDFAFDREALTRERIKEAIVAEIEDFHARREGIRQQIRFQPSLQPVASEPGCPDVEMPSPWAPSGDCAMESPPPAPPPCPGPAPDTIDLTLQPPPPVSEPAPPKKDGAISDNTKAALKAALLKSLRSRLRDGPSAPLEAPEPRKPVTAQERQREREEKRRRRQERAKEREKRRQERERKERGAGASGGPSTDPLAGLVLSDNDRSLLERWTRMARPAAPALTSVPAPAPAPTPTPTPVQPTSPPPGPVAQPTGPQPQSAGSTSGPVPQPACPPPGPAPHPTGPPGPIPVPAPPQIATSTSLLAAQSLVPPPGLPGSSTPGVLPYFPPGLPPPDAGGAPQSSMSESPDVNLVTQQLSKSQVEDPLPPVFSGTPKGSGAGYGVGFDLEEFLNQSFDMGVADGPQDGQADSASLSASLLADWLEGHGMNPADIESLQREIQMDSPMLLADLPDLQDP

[16] = target: TSSK3 (human) (UniProt Q96PN8)
Chain of TSSK3 (human) (Q96PN8 whole entry, looked up): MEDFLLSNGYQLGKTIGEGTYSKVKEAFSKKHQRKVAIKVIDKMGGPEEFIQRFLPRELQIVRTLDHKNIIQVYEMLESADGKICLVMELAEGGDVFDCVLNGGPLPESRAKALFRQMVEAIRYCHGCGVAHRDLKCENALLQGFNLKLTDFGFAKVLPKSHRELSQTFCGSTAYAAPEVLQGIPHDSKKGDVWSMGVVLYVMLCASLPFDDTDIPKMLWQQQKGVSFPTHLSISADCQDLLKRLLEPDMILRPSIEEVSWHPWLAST

[17] = target: CDK9 (human) (UniProt P50750)
[18] = target: EPHA5 (human) (UniProt P54756)
[19] = target: HIPK1 (human) (UniProt Q86Z02)
[20] = target: MAPK11 (human) (UniProt Q15759)
[21] = target: BRSK2 (human) (UniProt Q8IWQ3)
Chain of BRSK2 (human) (Q8IWQ3 whole entry, looked up): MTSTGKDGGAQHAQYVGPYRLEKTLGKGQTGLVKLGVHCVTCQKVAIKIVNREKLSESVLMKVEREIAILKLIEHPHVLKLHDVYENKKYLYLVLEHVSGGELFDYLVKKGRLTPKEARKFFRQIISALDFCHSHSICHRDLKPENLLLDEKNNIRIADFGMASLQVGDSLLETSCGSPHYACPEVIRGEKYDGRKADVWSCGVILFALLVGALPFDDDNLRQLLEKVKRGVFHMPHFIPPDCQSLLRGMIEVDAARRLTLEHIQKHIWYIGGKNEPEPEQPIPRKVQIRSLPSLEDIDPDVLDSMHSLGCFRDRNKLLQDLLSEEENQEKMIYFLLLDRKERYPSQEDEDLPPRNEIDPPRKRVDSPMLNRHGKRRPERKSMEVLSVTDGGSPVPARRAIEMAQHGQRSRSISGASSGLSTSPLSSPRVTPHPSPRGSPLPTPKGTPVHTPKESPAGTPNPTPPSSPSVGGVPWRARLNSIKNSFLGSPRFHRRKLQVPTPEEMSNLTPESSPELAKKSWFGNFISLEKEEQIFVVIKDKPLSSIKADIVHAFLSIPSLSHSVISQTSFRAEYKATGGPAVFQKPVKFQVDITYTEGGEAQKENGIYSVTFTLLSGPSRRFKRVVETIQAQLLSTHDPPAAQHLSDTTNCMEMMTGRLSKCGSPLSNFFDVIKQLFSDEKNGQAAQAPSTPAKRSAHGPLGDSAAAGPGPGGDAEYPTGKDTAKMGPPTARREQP

[22] = target: PLK1 (human) (UniProt P53350)
[23] = target: PRKD3 (human) (UniProt O94806)
[24] = target: MARK3 (human) (UniProt P27448)
[25] = target: PRKCD (human) (UniProt Q05655)
Chain of PRKCD (human) (Q05655 whole entry, looked up): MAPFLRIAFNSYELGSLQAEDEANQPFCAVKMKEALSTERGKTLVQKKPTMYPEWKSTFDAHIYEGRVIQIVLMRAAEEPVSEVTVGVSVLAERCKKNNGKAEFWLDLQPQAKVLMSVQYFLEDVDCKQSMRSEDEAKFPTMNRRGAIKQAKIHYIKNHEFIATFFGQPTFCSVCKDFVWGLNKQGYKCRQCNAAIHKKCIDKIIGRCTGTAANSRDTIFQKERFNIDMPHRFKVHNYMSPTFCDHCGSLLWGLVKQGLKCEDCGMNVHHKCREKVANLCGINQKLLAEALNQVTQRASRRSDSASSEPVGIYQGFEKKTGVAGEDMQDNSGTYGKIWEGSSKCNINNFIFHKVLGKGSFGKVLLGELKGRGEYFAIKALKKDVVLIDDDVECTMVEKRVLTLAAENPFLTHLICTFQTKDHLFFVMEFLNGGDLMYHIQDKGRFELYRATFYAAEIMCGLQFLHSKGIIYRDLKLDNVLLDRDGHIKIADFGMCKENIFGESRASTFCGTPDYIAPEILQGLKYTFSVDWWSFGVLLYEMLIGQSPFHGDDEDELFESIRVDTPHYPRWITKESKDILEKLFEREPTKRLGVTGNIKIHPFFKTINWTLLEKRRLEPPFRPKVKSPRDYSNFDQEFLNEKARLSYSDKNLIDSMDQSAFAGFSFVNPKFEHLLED

[26] = target: PRKD2 (human) (UniProt Q9BZL6)
[27] = target: CDK1 (human) (UniProt P06493)
Chain of CDK1 (human) (P06493 whole entry, looked up): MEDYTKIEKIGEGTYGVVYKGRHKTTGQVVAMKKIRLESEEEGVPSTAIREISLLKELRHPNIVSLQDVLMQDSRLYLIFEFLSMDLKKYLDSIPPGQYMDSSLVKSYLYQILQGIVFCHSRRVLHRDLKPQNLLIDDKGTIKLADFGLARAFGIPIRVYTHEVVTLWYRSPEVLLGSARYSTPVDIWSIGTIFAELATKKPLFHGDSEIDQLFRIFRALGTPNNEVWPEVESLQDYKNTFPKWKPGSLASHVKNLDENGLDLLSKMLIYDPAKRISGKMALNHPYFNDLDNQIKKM

[28] = target: CAMK1 (human) (UniProt Q14012)
[29] = target: PTK2B (human) (UniProt Q14289)
[30] = target: MINK1 (human) (UniProt Q8N4C8)
[31] = target: SGK1 (human) (UniProt O00141)
[32] = target: CAMK4 (human) (UniProt Q16566)
[33] = target: MAPK9 (human) (UniProt P45984)
[34] = target: MYLK2 (human) (UniProt Q9H1R3)

inhibition ([1]; compound 0.02 µM): -0.2%
inhibition ([1]; compound 0.2 µM): -2.7%
inhibition ([2]; compound 0.02 µM): 7%
inhibition ([2]; compound 0.2 µM): -6.6%
inhibition ([3]; compound 0.02 µM): 5.8%
inhibition ([3]; compound 0.2 µM): -8.2%
inhibition ([4]; compound 0.02 µM): -4.9%
inhibition ([4]; compound 0.2 µM): -7%
inhibition ([5]; compound 0.02 µM): 1%
inhibition ([5]; compound 0.2 µM): 4.3%
inhibition ([6]; compound 0.02 µM): 2.6%
inhibition ([6]; compound 0.2 µM): 25.1%
inhibition ([7]; compound 0.02 µM): 21.3%
inhibition ([7]; compound 0.2 µM): 68.5%
inhibition ([8]; compound 0.02 µM): -0.9%
inhibition ([8]; compound 0.2 µM): -1%
inhibition ([9]; compound 0.02 µM): 7.3%
inhibition ([9]; compound 0.2 µM): 46.6%
inhibition ([10]; compound 0.02 µM): 5.1%
inhibition ([10]; compound 0.2 µM): 11.9%
inhibition ([11]; compound 0.02 µM): 64.2%
inhibition ([11]; compound 0.2 µM): 68.1%
inhibition ([12]; compound 0.02 µM): 1.7%
inhibition ([12]; compound 0.2 µM): 0.3%
inhibition ([13]; compound 0.02 µM): -1.8% and -2.9%
inhibition ([13]; compound 0.2 µM): -2.9% and -3.3%
inhibition ([14]; compound 0.02 µM): 1.1%
inhibition ([14]; compound 0.2 µM): 25.2%
inhibition ([15]; compound 0.02 µM): -7.8%
inhibition ([15]; compound 0.2 µM): -7.6%
inhibition ([16]; compound 0.02 µM): 2.2%
inhibition ([16]; compound 0.2 µM): 6.7%
inhibition ([17]; compound 0.02 µM): -2.5%
inhibition ([17]; compound 0.2 µM): 5.1%
inhibition ([18]; compound 0.02 µM): -2.7%
inhibition ([18]; compound 0.2 µM): 4.7%
inhibition ([19]; compound 0.02 µM): 2.6%
inhibition ([19]; compound 0.2 µM): 7.3%
inhibition ([20]; compound 0.02 µM): -6.7%
inhibition ([20]; compound 0.2 µM): 0.9%
inhibition ([21]; compound 0.02 µM): -2.2%
inhibition ([21]; compound 0.2 µM): 0.4%
inhibition ([22]; compound 0.02 µM): -0.7%
inhibition ([22]; compound 0.2 µM): -2.2%
inhibition ([23]; compound 0.02 µM): -1.6%
inhibition ([23]; compound 0.2 µM): 1.3%
inhibition ([24]; compound 0.02 µM): 1.7%
inhibition ([24]; compound 0.2 µM): -3.6%
inhibition ([25]; compound 0.02 µM): -1.6%
inhibition ([25]; compound 0.2 µM): -4.4%
inhibition ([26]; compound 0.02 µM): -2.2%
inhibition ([26]; compound 0.2 µM): -1.5%
inhibition ([27]; compound 0.02 µM): -2.9%
inhibition ([27]; compound 0.2 µM): -1.5%
inhibition ([28]; compound 0.02 µM): -2.3%
inhibition ([28]; compound 0.2 µM): 1.4%
inhibition ([29]; compound 0.02 µM): -0.4%
inhibition ([29]; compound 0.2 µM): 9.7%
inhibition ([30]; compound 0.02 µM): 2%
inhibition ([30]; compound 0.2 µM): 10.8%
inhibition ([31]; compound 0.02 µM): -0.7%
inhibition ([31]; compound 0.2 µM): -4.1%
inhibition ([32]; compound 0.02 µM): -2.8%
inhibition ([32]; compound 0.2 µM): -1.2%
Compound: Cc1ccc(Nc2nccc(N(C)c3ccc4c(C)n(C)nc4c3)n2)cc1S(N)(=O)=O

inhibition ([33]; compound 0.2 µM): -8.7%
inhibition ([33]; compound 4.0 µM): -15.7%
inhibition ([1]; compound 4.0 µM): 20.6%
inhibition ([2]; compound 0.2 µM): 82.6%
inhibition ([2]; compound 4.0 µM): 100%
inhibition ([3]; compound 0.2 µM): 4.4%
inhibition ([3]; compound 4.0 µM): 11%
inhibition ([5]; compound 0.2 µM): 1.7%
inhibition ([5]; compound 4.0 µM): -2.1%
inhibition ([6]; compound 0.2 µM): 38%
inhibition ([6]; compound 4.0 µM): 94.6%
inhibition ([7]; compound 0.2 µM): 75%
inhibition ([7]; compound 4.0 µM): 98.4%
inhibition ([34]; compound 0.2 µM): 81.9%
inhibition ([9]; compound 0.2 µM): 87.5%
inhibition ([9]; compound 4.0 µM): 98.1%
inhibition ([10]; compound 0.2 µM): 69%
inhibition ([13]; compound 4.0 µM): 86.1% and 97.8%
inhibition ([14]; compound 0.2 µM): -0.6%
inhibition ([14]; compound 4.0 µM): 24%
inhibition ([15]; compound 0.2 µM): -5.7%
inhibition ([15]; compound 4.0 µM): 28.8%
inhibition ([16]; compound 0.2 µM): 2.6%
inhibition ([16]; compound 4.0 µM): -1.3%
inhibition ([17]; compound 0.2 µM): -0.1%
inhibition ([17]; compound 4.0 µM): 47.5%
inhibition ([18]; compound 0.2 µM): 6.7%
inhibition ([18]; compound 4.0 µM): 50.8%
inhibition ([19]; compound 0.2 µM): 51.3%
inhibition ([19]; compound 4.0 µM): 94.4%
inhibition ([20]; compound 0.2 µM): -1.4%
inhibition ([20]; compound 4.0 µM): -3.1%
inhibition ([21]; compound 0.2 µM): 36.7%
inhibition ([21]; compound 4.0 µM): 85.9%
inhibition ([22]; compound 0.2 µM): -3.4%
inhibition ([22]; compound 4.0 µM): 5.8%
inhibition ([23]; compound 0.2 µM): 63.7%
inhibition ([23]; compound 4.0 µM): 97.5%
inhibition ([24]; compound 0.2 µM): 77.4%
inhibition ([24]; compound 4.0 µM): 99%
inhibition ([25]; compound 0.2 µM): 0.9%
inhibition ([25]; compound 4.0 µM): 48.4%
pKi [26]: 7.28
inhibition ([26]; compound 0.2 µM): 65.6%
inhibition ([26]; compound 4.0 µM): 97.9%
inhibition ([27]; compound 0.2 µM): -3%
inhibition ([27]; compound 4.0 µM): 16%
inhibition ([28]; compound 0.2 µM): 7.3%
inhibition ([28]; compound 4.0 µM): 61.2%
inhibition ([29]; compound 0.2 µM): 72.4%
inhibition ([29]; compound 4.0 µM): 101%
inhibition ([30]; compound 0.2 µM): 56.6%
inhibition ([30]; compound 4.0 µM): 99.7%
inhibition ([31]; compound 0.2 µM): 28.6%
inhibition ([31]; compound 4.0 µM): 87.8%
inhibition ([32]; compound 0.2 µM): 15.7%
inhibition ([32]; compound 4.0 µM): 80.8%
Compound: CCN(CC)CCNC(=O)c1c(C)[nH]c(/C=C2\C(=O)Nc3ccc(F)cc32)c1C

inhibition ([33]; compound 0.02 µM): -7.7%
inhibition ([33]; compound 0.2 µM): 0.5%
inhibition ([1]; compound 0.02 µM): 0.8%
inhibition ([1]; compound 0.2 µM): 10.7%
inhibition ([2]; compound 0.02 µM): -5.3%
inhibition ([2]; compound 0.2 µM): 10.4%
inhibition ([3]; compound 0.02 µM): 0.4%
inhibition ([3]; compound 0.2 µM): 6%
inhibition ([4]; compound 0.02 µM): -4.6%
inhibition ([4]; compound 0.2 µM): -2.9%
inhibition ([5]; compound 0.02 µM): -8.6%
inhibition ([5]; compound 0.2 µM): 3.6%
inhibition ([6]; compound 0.02 µM): -11.6%
inhibition ([6]; compound 0.2 µM): 5.2%
inhibition ([7]; compound 0.02 µM): 5.5%
inhibition ([7]; compound 0.2 µM): 51.7%
inhibition ([8]; compound 0.02 µM): -3.7%
inhibition ([8]; compound 0.2 µM): -3%
inhibition ([34]; compound 0.02 µM): -3.3%
inhibition ([34]; compound 0.2 µM): -2.4%
inhibition ([9]; compound 0.02 µM): -6.2%
inhibition ([9]; compound 0.2 µM): 0.8%
inhibition ([10]; compound 0.02 µM): -2.2%
inhibition ([10]; compound 0.2 µM): 7.4%
inhibition ([12]; compound 0.02 µM): -18.7%
inhibition ([12]; compound 0.2 µM): -0.7%
inhibition ([13]; compound 0.02 µM): -2.4% and -2.9%
inhibition ([13]; compound 0.2 µM): -3.6%
inhibition ([14]; compound 0.02 µM): -0.4%
inhibition ([14]; compound 0.2 µM): 4.1%
inhibition ([15]; compound 0.02 µM): -9.1%
inhibition ([15]; compound 0.2 µM): -8.8%
inhibition ([16]; compound 0.02 µM): 2.7%
inhibition ([16]; compound 0.2 µM): 8.3%
inhibition ([17]; compound 0.02 µM): -7.5%
inhibition ([17]; compound 0.2 µM): -6.7%
inhibition ([18]; compound 0.02 µM): 6.1%
inhibition ([18]; compound 0.2 µM): 38.8%
inhibition ([19]; compound 0.02 µM): -1.4%
inhibition ([19]; compound 0.2 µM): 3.9%
inhibition ([20]; compound 0.02 µM): 10.4%
inhibition ([20]; compound 0.2 µM): 62.3%
inhibition ([21]; compound 0.02 µM): -1.1%
inhibition ([21]; compound 0.2 µM): -1.3%
inhibition ([22]; compound 0.02 µM): -3.1%
inhibition ([22]; compound 0.2 µM): -3.7%
inhibition ([23]; compound 0.02 µM): -0.7%
inhibition ([23]; compound 0.2 µM): -5.1%
inhibition ([24]; compound 0.02 µM): -5.5%
inhibition ([24]; compound 0.2 µM): 5.7%
inhibition ([25]; compound 0.02 µM): -1.7%
inhibition ([25]; compound 0.2 µM): 11.7%
inhibition ([26]; compound 0.02 µM): -1.2%
inhibition ([26]; compound 0.2 µM): 0%
inhibition ([27]; compound 0.02 µM): -2%
inhibition ([27]; compound 0.2 µM): -2%
inhibition ([28]; compound 0.02 µM): -4.6%
inhibition ([28]; compound 0.2 µM): -2.2%
inhibition ([29]; compound 0.02 µM): -2.8%
inhibition ([29]; compound 0.2 µM): -2.7%
inhibition ([30]; compound 0.02 µM): -3.3%
inhibition ([30]; compound 0.2 µM): 4.1%
inhibition ([31]; compound 0.02 µM): -0.6%
inhibition ([31]; compound 0.2 µM): 8.5%
inhibition ([32]; compound 0.02 µM): -8.3%
inhibition ([32]; compound 0.2 µM): 1.9%
Compound: CNC(=O)c1cc(Oc2ccc(NC(=O)Nc3ccc(Cl)c(C(F)(F)F)c3)cc2)ccn1
